According to publication PMC7577350 (ACS chemical biology, 2013):
Where two headings read alike, the source gives them in different places. Numbered stars: 1 amine (or outer) side, 2 acyl side, 3 side chain; on linkers, the order of the positions; unused ones are H or OH. Bridge positions count the residues as written; N and C are the ends. Square brackets hold non-standard residues; d marks the D form. Peptide text beside a SMILES is read from it. Nle(6-ylidene) = O=C([C@H](CCCC=[*:3])N[*:1])[*:2]; Gly(pent-4-enyl) = C=CCCC[C@H](N)C(=O)O

Assays:
[1] = tested on: HIV-1 (NL4-3 strain); format: cell-based; conditions: read-out: EC50 (μM) p24 assay, MT-4 cells
[2] = tested on: HIV-1 (NL4-3 strain); assay: MTT anti-HIV assay; format: cell-based; conditions: read-out: EC50 (μM) MTT assay; MT-4 cells, HIV-1 NL4-3, Table 3
[3] = tested on: mock-infected MT-4 cells; assay: MTT cytotoxicity assay; format: cell-based
[4] = molecular target: T1, HIV-1 IN (Human immunodeficiency virus type 1 group M subtype B, UniProt P04585); assay: Integrase assay, 3′-end processing reaction; format: biochemical
[5] = molecular target: T1, HIV-1 IN; assay: Integrase assay, strand transfer reaction; format: biochemical
[6] = MTT cytotoxicity assay; format: cell-based
[7] = tested on: HIV-1 NL4-3; assay: MT-4 Luc assay; format: cell-based; conditions: MT-4 Luc cells; for concentrations at which significant anti-HIV activity was shown: luciferase signal
[8] = CC50 (μM) MTT assay, mock infected MT-4 cells, Table 3
[9] = both 3′-end processing and strand transfer reactions
[10] = CC50 (μM) MTT assay, mock infected MT-4 cells, Table 4

Cc1cn([C@H]2C[C@H](N=[N+]=[N-])[C@@H](CO)O2)c(=O)[nH]c1=O [AZT, reference compound]
EC50 ([1]; HIV-1 NL4-3, Table 3): 0.02 µM | EC50 ([1]; HIV-1 NL4-3, Table 4): 0.29 µM | EC50 [2]: 0.07 µM | CC50 [3]: > 100 µM

CC[C@H](C)[C@H](NC(=O)[C@H](C)NC(=O)[C@H](CCC(=O)O)NC(C)=O)C(=O)N[C@H](C(=O)N[C@@H](CCCNC(=N)N)C(=O)N[C@H](C(=O)N[C@@H](CC(C)C)C(=O)N[C@@H](CCC(N)=O)C(=O)N[C@@H](CCC(N)=O)C(=O)N[C@@H](CC(C)C)C(=O)N[C@@H](CC(C)C)C(=O)N[C@@H](Cc1ccccc1)C(=O)N[C@H](C(=O)N[C@@H](Cc1c[nH]cn1)C(=O)N[C@@H](Cc1ccccc1)C(=O)N[C@@H](CCCNC(=N)N)C(=O)N[C@H](C(=O)NCC(N)=O)[C@@H](C)CC)[C@@H](C)CC)[C@@H](C)CC)[C@@H](C)CC [compound 1]
IC50 ([4]; IC50 3′-end processing, Table 2): 2.6 ± 0.2 µM | IC50 ([4]; IC50 (μM) 3′-end processing, Table 3 batch): 1.62 ± 0.26 µM | IC50 ([4]; IC50 (μM) 3′-end processing, Table 4 batch): 2 ± 0.2 µM | IC50 ([5]; IC50 (μM) strand transfer, Table 3 batch): 1.34 ± 0.2 µM | IC50 ([5]; IC50 (μM) strand transfer, Table 4 batch): 2.2 ± 0.2 µM | IC50 ([5]; IC50 strand transfer, Table 2): 1.1 ± 0.08 µM | EC50 ([1]; HIV-1 NL4-3, Table 3): > 10 µM | EC50 ([1]; HIV-1 NL4-3, Table 4): > 20 µM | EC50 [2]: > 10 µM | CC50 [6, 8]: > 10 µM | anti-HIV activity at concentrations below 10 μM ([7]; below 10 μM): no significant anti-HIV activity

CC[C@H](C)[C@H](NC(=O)[C@H](C)NC(=O)[C@H](CCC(=O)O)NC(C)=O)C(=O)N[C@H](C(=O)N[C@@H](CCCNC(=N)N)C(=O)N[C@H](C(=O)N[C@@H](CC(C)C)C(=O)N[C@@H](CCC(N)=O)C(=O)N[C@@H](CCC(N)=O)C(=O)N[C@@H](CC(C)C)C(=O)N[C@@H](CC(C)C)C(=O)N[C@@H](Cc1ccccc1)C(=O)N[C@H](C(=O)N[C@@H](Cc1c[nH]cn1)C(=O)N[C@@H](Cc1ccccc1)C(=O)N[C@@H](CCCNC(=N)N)C(=O)N[C@H](C(=O)NCC(=O)N[C@@H](CCCNC(=N)N)C(=O)N[C@@H](CCCNC(=N)N)C(=O)N[C@@H](CCCNC(=N)N)C(=O)N[C@@H](CCCNC(=N)N)C(=O)N[C@@H](CCCNC(=N)N)C(=O)N[C@@H](CCCNC(=N)N)C(=O)N[C@@H](CCCNC(=N)N)C(=O)N[C@@H](CCCNC(=N)N)C(N)=O)[C@@H](C)CC)[C@@H](C)CC)[C@@H](C)CC)[C@@H](C)CC [compound 2]
inhibitory levels × higher than those of compound 1 [4, 9]: approximately 30 × | CC50 [6]: 5.91 µM | concentrations at which significant anti-HIV activity was shown [7]: above 2.5 μM

CC[C@H](C)[C@H](NC(=O)[C@H](C)NC(=O)[C@H](CCC(=O)O)NC(C)=O)C(=O)N[C@H]1CCCC=CCCC[C@@H](C(=O)N[C@@H](CCC(N)=O)C(=O)N[C@@H](CC(C)C)C(=O)N[C@@H](CC(C)C)C(=O)N[C@@H](Cc2ccccc2)C(=O)N[C@H](C(=O)N[C@@H](Cc2c[nH]cn2)C(=O)N[C@@H](Cc2ccccc2)C(=O)N[C@@H](CCCNC(=N)N)C(=O)N[C@H](C(=O)NCC(=O)N[C@@H](CCCNC(=N)N)C(=O)N[C@@H](CCCNC(=N)N)C(=O)N[C@@H](CCCNC(=N)N)C(=O)N[C@@H](CCCNC(=N)N)C(=O)N[C@@H](CCCNC(=N)N)C(=O)N[C@@H](CCCNC(=N)N)C(=O)N[C@@H](CCCNC(=N)N)C(=O)N[C@@H](CCCNC(=N)N)C(N)=O)[C@@H](C)CC)[C@@H](C)CC)NC(=O)[C@H](CC(C)C)NC(=O)[C@H]([C@@H](C)CC)NC(=O)[C@H](CCCNC(=N)N)NC1=O [compound 17] (Ac-EAI[Nle(6-ylidene)]RIL[Nle(6-ylidene)]QLLFIHFRIGRRRRRRRR-NH2; staple 4-8)
CC50 [6, 8]: 7.04 µM | CC50 [6, 10]: 6.9 µM | concentrations at which significant anti-HIV activity was shown [7]: above 1.25 μM

CC[C@H](C)[C@H](NC(=O)[C@H](C)NC(=O)[C@H](CCC(=O)O)NC(C)=O)C(=O)N[C@H]1CCCC=CCCC[C@@H](C(=O)N[C@@H](CCC(N)=O)C(=O)N[C@@H](CC(C)C)C(=O)N[C@@H](CC(C)C)C(=O)N[C@@H](Cc2ccccc2)C(=O)N[C@H](C(=O)N[C@@H](Cc2c[nH]cn2)C(=O)N[C@@H](Cc2ccccc2)C(=O)N[C@@H](CCCNC(=N)N)C(=O)N[C@H](C(=O)NCC(=O)N[C@@H](CCCNC(=N)N)C(=O)N[C@@H](CCC(=O)O)C(=O)N[C@@H](CCCNC(=N)N)C(=O)N[C@@H](CCC(=O)O)C(=O)N[C@@H](CCCNC(=N)N)C(=O)N[C@@H](CCC(=O)O)C(=O)N[C@@H](CCCNC(=N)N)C(=O)N[C@@H](CCC(=O)O)C(N)=O)[C@@H](C)CC)[C@@H](C)CC)NC(=O)[C@H](CC(C)C)NC(=O)[C@H]([C@@H](C)CC)NC(=O)[C@H](CCCNC(=N)N)NC1=O [compound 18] (Ac-EAI[Nle(6-ylidene)]RIL[Nle(6-ylidene)]QLLFIHFRIGRERERERE-NH2; staple 4-8)
CC50 [6, 8]: > 10 µM | concentrations at which significant anti-HIV activity was shown [7]: above 5 μM

C=CCCC[C@H](NC(=O)[C@H](CC(C)C)NC(=O)[C@@H](NC(=O)[C@H](CCCNC(=N)N)NC(=O)[C@H](CCCC=C)NC(=O)[C@@H](NC(=O)[C@H](C)NC(=O)[C@H](CCC(=O)O)NC(C)=O)[C@@H](C)CC)[C@@H](C)CC)C(=O)N[C@@H](CCC(N)=O)C(=O)N[C@@H](CC(C)C)C(=O)N[C@@H](CC(C)C)C(=O)N[C@@H](Cc1ccccc1)C(=O)N[C@H](C(=O)N[C@@H](Cc1c[nH]cn1)C(=O)N[C@@H](Cc1ccccc1)C(=O)N[C@@H](CCCNC(=N)N)C(=O)N[C@H](C(=O)NCC(=O)N[C@@H](CCCNC(=N)N)C(=O)N[C@@H](CCC(=O)O)C(=O)N[C@@H](CCCNC(=N)N)C(=O)N[C@@H](CCC(=O)O)C(=O)N[C@@H](CCCNC(=N)N)C(=O)N[C@@H](CCC(=O)O)C(=O)N[C@@H](CCCNC(=N)N)C(=O)N[C@@H](CCC(=O)O)C(N)=O)[C@@H](C)CC)[C@@H](C)CC [compound 19] (Ac-EAI[Gly(pent-4-enyl)]RIL[Gly(pent-4-enyl)]QLLFIHFRIGRERERERE-NH2)
CC50 [6, 8]: > 10 µM | concentrations at which significant anti-HIV activity was shown [7]: 10 µM

CC[C@H](C)[C@H](NC(=O)[C@H](C)NC(=O)[C@H](CCC(=O)O)NC(C)=O)C(=O)N[C@H]1CCCC=CCCC[C@@H](C(=O)N[C@@H](CCC(N)=O)C(=O)N[C@@H](CC(C)C)C(=O)N[C@@H](CC(C)C)C(=O)N[C@@H](Cc2ccccc2)C(=O)N[C@H](C(=O)N[C@@H](Cc2c[nH]cn2)C(=O)N[C@@H](Cc2ccccc2)C(=O)N[C@@H](CCCNC(=N)N)C(=O)N[C@H](C(=O)NCC(=O)N[C@@H](CCCNC(=N)N)C(=O)N[C@@H](CCCNC(=N)N)C(=O)N[C@@H](CCCNC(=N)N)C(=O)N[C@@H](CCCNC(=N)N)C(N)=O)[C@@H](C)CC)[C@@H](C)CC)NC(=O)[C@H](CC(C)C)NC(=O)[C@H]([C@@H](C)CC)NC(=O)[C@H](CCCNC(=N)N)NC1=O [compound 20] (Ac-EAI[Nle(6-ylidene)]RIL[Nle(6-ylidene)]QLLFIHFRIGRRRR-NH2; staple 4-8)
× higher inhibition than compound 6S [4, 9]: 3–6 × | CC50 [6, 10]: 16 µM

CC[C@H](C)[C@H](NC(=O)[C@H](C)NC(=O)[C@H](CCC(=O)O)NC(C)=O)C(=O)N[C@H]1CCCC=CCCC[C@@H](C(=O)N[C@@H](CCC(N)=O)C(=O)N[C@@H](CC(C)C)C(=O)N[C@@H](CC(C)C)C(=O)N[C@@H](Cc2ccccc2)C(=O)N[C@H](C(=O)N[C@@H](Cc2c[nH]cn2)C(=O)N[C@@H](Cc2ccccc2)C(=O)N[C@@H](CCCNC(=N)N)C(=O)N[C@H](C(=O)NCC(=O)N[C@@H](CCCNC(=N)N)C(=O)N[C@@H](CCCNC(=N)N)C(=O)N[C@@H](CCCNC(=N)N)C(=O)N[C@@H](CCCNC(=N)N)C(=O)N[C@@H](CCCNC(=N)N)C(N)=O)[C@@H](C)CC)[C@@H](C)CC)NC(=O)[C@H](CC(C)C)NC(=O)[C@H]([C@@H](C)CC)NC(=O)[C@H](CCCNC(=N)N)NC1=O [compound 21] (Ac-EAI[Nle(6-ylidene)]RIL[Nle(6-ylidene)]QLLFIHFRIGRRRRR-NH2; staple 4-8)
× higher inhibition than compound 6S [4, 9]: 3–6 × | CC50 [6, 10]: 15 µM

CC[C@H](C)[C@H](NC(=O)[C@H](C)NC(=O)[C@H](CCC(=O)O)NC(C)=O)C(=O)N[C@H]1CCCC=CCCC[C@@H](C(=O)N[C@@H](CCC(N)=O)C(=O)N[C@@H](CC(C)C)C(=O)N[C@@H](CC(C)C)C(=O)N[C@@H](Cc2ccccc2)C(=O)N[C@H](C(=O)N[C@@H](Cc2c[nH]cn2)C(=O)N[C@@H](Cc2ccccc2)C(=O)N[C@@H](CCCNC(=N)N)C(=O)N[C@H](C(=O)NCC(=O)N[C@@H](CCCNC(=N)N)C(=O)N[C@@H](CCCNC(=N)N)C(=O)N[C@@H](CCCNC(=N)N)C(=O)N[C@@H](CCCNC(=N)N)C(=O)N[C@@H](CCCNC(=N)N)C(=O)N[C@@H](CCCNC(=N)N)C(N)=O)[C@@H](C)CC)[C@@H](C)CC)NC(=O)[C@H](CC(C)C)NC(=O)[C@H]([C@@H](C)CC)NC(=O)[C@H](CCCNC(=N)N)NC1=O [compound 22] (Ac-EAI[Nle(6-ylidene)]RIL[Nle(6-ylidene)]QLLFIHFRIGRRRRRR-NH2; staple 4-8)
× higher inhibitory levels than compounds 20 and 21 ([4]; both reactions): 2 × | CC50 [6, 10]: 13 µM

CC[C@H](C)[C@H](NC(=O)[C@H](C)NC(=O)[C@H](CCC(=O)O)NC(C)=O)C(=O)N[C@H]1CCCC=CCCC[C@@H](C(=O)N[C@@H](CCC(N)=O)C(=O)N[C@@H](CC(C)C)C(=O)N[C@@H](CC(C)C)C(=O)N[C@@H](Cc2ccccc2)C(=O)N[C@H](C(=O)N[C@@H](Cc2c[nH]cn2)C(=O)N[C@@H](Cc2ccccc2)C(=O)N[C@@H](CCCNC(=N)N)C(=O)N[C@H](C(=O)NCC(=O)N[C@@H](CCCNC(=N)N)C(=O)N[C@@H](CCCNC(=N)N)C(=O)N[C@@H](CCCNC(=N)N)C(=O)N[C@@H](CCCNC(=N)N)C(=O)N[C@@H](CCCNC(=N)N)C(=O)N[C@@H](CCCNC(=N)N)C(=O)N[C@@H](CCCNC(=N)N)C(N)=O)[C@@H](C)CC)[C@@H](C)CC)NC(=O)[C@H](CC(C)C)NC(=O)[C@H]([C@@H](C)CC)NC(=O)[C@H](CCCNC(=N)N)NC1=O [compound 23] (Ac-EAI[Nle(6-ylidene)]RIL[Nle(6-ylidene)]QLLFIHFRIGRRRRRRR-NH2; staple 4-8)
CC50 [6, 10]: 12 µM
